By melting point is commonly meant the temperature, or range, at which the solid turns liquid.

Where two headings read alike, the source gives them in different places.

For data set [1], the target named is T1, hERG ion channels (Homo sapiens, UniProt Q12809).
Description: (§2) Label-free RWG biosensor cellular assays were developed to directly assaying the activation and its subsequent signaling of hERG channels without applying voltages to the cells. […] Generally, the disclosed methods to characterize modulators acting directly through hERG ion channel, or indirectly via hERG-associated signaling complexes are related to label-free biosensor cellular assays. Disclosed is the use of three types of cells: a cancerous cell line endogenously expressing hERG ion channels, a native cell line without endogenous hERG channels and its engineered cell line overexpressing hERG channels, for characterizing hERG modulators. Also disclosed is the use of mallotoxin or other hERG activator as a readout to further confirm the modes of action of hERG modulators.
(§3) In a specific approach, any compound can be profiled in three different types of cells, HT29, HEK-hERG, and HEK-293 cells, in both agonism and antagonism modes. The human colon cancerous cell line HT-29 is known to endogenously express hERG channels. HEK293 is a native cell line without endogenously expressed hERG channels, while HEK-hERG is an engineered HEK293 cell having stably expressed hERG channels.
In data set [2] the target is T1, hERG ion channels. Kind of data set: DMR antagonism mode: modulation of the mallotoxin DMR signal in HT29 cells. Particulars: for effect on the mallotoxin DMR signal in HT29 cells (in words): molecule 10 micromolar, mallotoxin 16 micromolar, antagonism assay.
For data set [3], the target named is T1, hERG ion channels. The data set is described as follows: DMR antagonism mode: modulation of the mallotoxin DMR signal in HEK-hERG cells. Particulars: for effect on the mallotoxin DMR signal in HEK-hERG cells (in words): molecule 10 micromolar, mallotoxin 16 micromolar, antagonism assay. A general note: hERG is a cardiac potassium channel; its block is linked to QT prolongation.

Data set [4] deals with T1, hERG ion channels. The data set is described as follows: Label-free RWG biosensor (Epic) DMR assay, agonism mode, HEK-hERG cells stably expressing hERG. The conditions noted are these: 10 micromolar.
Description: (§4) Using the RWG biosensor Corning® Epic® system, all compounds were systematically characterized for their ability to modulate hERG ion channels in live cells. The Epic® system consists of a temperature-control unit, an optical detection unit, with an on-board liquid handling unit with robotics, or an external liquid accessory system with robotics. The detection unit is centered on integrated fiber optics, and enables kinetic measures of cellular responses with a time interval of ˜7 or 15 sec. The compound solutions were introduced by using either the on-board liquid handling unit, or the external liquid accessory system; both of which use conventional pippetting system.
(§5) Epic® wavelength interrogation system (Corning Inc., Corning, N.Y.) was used for whole cell sensing. This system consists of a temperature-control unit, an optical detection unit, and an on-board liquid handling unit with robotics. The detection unit is centered on integrated fiber optics, and enables kinetic measures of cellular responses with a time interval of ˜15 sec.
(§6) Cells were plated in 384-well Epic® cell culture treated plate (Corning Cat#5040) 16-20 hours before assay (15000 cells/well for HEK293 and HEK-hERG cells, 30000 cells/well for HT29 cells). For both HEK-hERG and its parental HEK293 cells, each well was coated with 10 μl 5 μg/ml fibronectin. One hour before assay, cells were washed twice on a BioTek ELx405 Select washer with Hank's Balanced Salt Solution (HBSS) containing 20 mM Hepes. Cells were incubated in 40 μl/well HBSS at 28° C. inside the Epic system for one hour. For each assay, a 2-min baseline was initiated, followed by addition of 10 μl compound solutions (5×) and the cell responses were recorded continuously for one hour.
(§7) All studies were carried out at a controlled temperature (28° C.). At least two independent sets of experiments, each with at least three replicates, were performed. […] All dose-dependent responses were analyzed using non-linear regression method with the GraphPad Prism 5.
as §3
Data set [5] has as its target T1, hERG ion channels. Kind of data set: Label-free RWG biosensor (Epic) DMR assay, agonism mode, HT29 cells endogenously expressing hERG. The conditions noted are these: 10 micromolar.
Description: as §4, §5, §6, §7, §3
The test system of data set [6] is HT29. Kind of data set: Cell proliferation assay (CellTiter-Glo) in HT29. Type of data set: cell-based, human. The conditions noted are these: for cytotoxicity on cancer cell line HT29: 25 micromolar, in vitro culture; for cell apoptosis or alteration in cell proliferation rate, HT29: 48 h exposure. The protocol: (§1) Proliferation was measured using the CellTiter-Glo Luminescent Cell Viability Assay (Technical Bulletin #288, Promega, Madison, Wis.). When added to cells, the assay reagent produces luminescence in the presence of ATP from viable cells. Cells were plated in 96-well Corning Costar TCT (tissue culture treated) plates at a density of 10,000 cells/well and incubated for 24 h. Test samples were solubilized in dimethyl sulfoxide (DMSO) by sonication, filter sterilized and diluted with media to the desired treatment concentration. Cells were treated with 100 μl control media, or test samples, and incubated for 48 h drug exposure duration. At the end of 48 h, plates were equilibrated at room temperature for 30 min, 100 μl of the assay reagent was added to each well and cell lysis was induced on an orbital shaker for 2 min. Plates were incubated at room temperature for 10 min to stabilize the luminescence signal and results were read on an Perkin Elmer Vector 3 Microplate Reader. All plates had control wells containing medium without cells to obtain a value for background luminescence. Data are expressed as for three replications.
Background: In ATP-based viability assays light output follows the ATP content of the culture.

For data set [7], the system named is MCF7. The data set is described as follows: Cell proliferation assay (CellTiter-Glo) in MCF7. The format is cell-based. Particulars: 48 h exposure; data not shown. The protocol: as §1
The target of data set [8] is T1, hERG ion channels. Kind of data set: Rb+ flux assay using HEK-hERG cells. Particulars: 5 mM KCl, modulators at 10 or 50 micromolar (FIG. 3).
Protocol: Briefly, 50,000 cells per well were plated in 96-well tissue culture treated plates 20 hours before assay. In the next day, cells were incubated with complete cell culture medium containing 5 mM RbCl for 3 hours at 37° C. with 5% CO2. Then compounds (10×) diluted in HBSS were added into the cell culture medium and cells were incubated at 37° C. with 5% CO2 for another hour. Cells were washed twice with Rb^+ free cell culture medium and incubated with 180 μl/well of cell culture medium containing different concentration of KCl for exactly 10 minutes. The supernatant from each well was transferred to a new 96 well plate immediately. Cells were lysed with 180 μl/well 0.5% Triton100 in HBSS. The Rb^+ concentration of each sample was determined by ICR8000 (Aurora Biomed Inc.).
The target in data set [9] is T1, hERG ion channels. The data set is described as follows: Label-free biosensor hERG modulator classification from profiles in HT29, HEK-hERG and HEK293 cells plus mallotoxin modulation. The conditions noted are these: label-free biosensor cellular assays.
Description: as §2, §3
Where [10] appears, read: score assigned from % modulation of mallotoxin DMR (10% = 1).

T1 sequence (Q12809 whole entry): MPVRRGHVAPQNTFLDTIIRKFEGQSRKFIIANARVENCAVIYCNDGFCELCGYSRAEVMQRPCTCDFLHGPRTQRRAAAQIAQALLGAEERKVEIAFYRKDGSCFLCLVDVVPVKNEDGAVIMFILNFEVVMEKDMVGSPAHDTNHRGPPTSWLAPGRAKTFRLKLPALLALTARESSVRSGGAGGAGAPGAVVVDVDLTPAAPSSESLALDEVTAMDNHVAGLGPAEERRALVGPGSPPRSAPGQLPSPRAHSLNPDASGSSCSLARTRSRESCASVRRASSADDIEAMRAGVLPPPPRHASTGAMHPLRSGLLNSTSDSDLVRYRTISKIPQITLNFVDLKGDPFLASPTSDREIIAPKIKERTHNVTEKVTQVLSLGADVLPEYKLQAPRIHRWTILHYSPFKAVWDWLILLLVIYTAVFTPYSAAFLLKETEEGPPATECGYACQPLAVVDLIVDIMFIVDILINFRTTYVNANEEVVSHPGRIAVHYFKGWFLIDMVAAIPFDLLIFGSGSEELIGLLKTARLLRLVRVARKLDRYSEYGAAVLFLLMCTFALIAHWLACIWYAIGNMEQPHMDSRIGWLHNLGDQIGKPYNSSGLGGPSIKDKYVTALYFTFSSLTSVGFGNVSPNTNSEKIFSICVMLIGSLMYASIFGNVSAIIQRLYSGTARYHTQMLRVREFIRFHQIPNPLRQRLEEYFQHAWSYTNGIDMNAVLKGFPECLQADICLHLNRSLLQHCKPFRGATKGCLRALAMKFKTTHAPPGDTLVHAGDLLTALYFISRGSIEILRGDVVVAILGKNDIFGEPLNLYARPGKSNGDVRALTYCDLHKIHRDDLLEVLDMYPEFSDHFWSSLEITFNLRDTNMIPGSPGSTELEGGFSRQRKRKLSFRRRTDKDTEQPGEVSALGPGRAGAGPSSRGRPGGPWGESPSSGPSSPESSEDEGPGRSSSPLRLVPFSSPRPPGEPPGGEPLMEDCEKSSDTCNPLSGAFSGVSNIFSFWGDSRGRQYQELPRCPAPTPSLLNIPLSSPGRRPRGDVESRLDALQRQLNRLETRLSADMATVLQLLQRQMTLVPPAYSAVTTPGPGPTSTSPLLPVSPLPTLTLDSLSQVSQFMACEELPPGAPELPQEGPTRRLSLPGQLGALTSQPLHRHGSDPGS

With `N#CC(C#N)=Cc1ccc([N+](=O)[O-])c(O)c1` [AG126, reference compound], the “class of hERG modulator assigned” value in data set [1] is reported as “hERG pathway activator”.

With `CC1=C(C#N)C(=C(C#N)C#N)OC1(C)C` [A], the “class of hERG modulator assigned” value in data set [1] was “label-free biosensor hERG activator”.

Regarding `CC1=C(C#N)C(=C(C#N)C#N)OC1(C)c1ccc(F)cc1` (centres unmarked) [C], in [1], the “class of hERG modulator assigned” value was “label-free biosensor hERG activator”.

As to `O=C(O)CC1CCC(c2ccc(-c3cc(C(F)(F)F)[nH]n3)cc2)CC1` (centres unmarked) [Compound A-935142, reference compound], in data set [1], the “class of hERG modulator assigned” value is “label-free biosensor hERG activators”.

As for `CC1=C(C#N)C(=C(C#N)C#N)OC1(c1ccccc1)C(F)(F)F` (centres unmarked) [Compound B, 2-dicyanomethylene-3-cyano-4-methyl-5-phenyl-5-perfluoromethyl-2,5-dihydrofuran], the “class of hERG modulator assigned” value in data set [1] is “potent label-free biosensor hERG activator”. In data set [2], the “effect on the mallotoxin DMR signal in HT29 cells (in words)” value (“effect … in HT29 cells (in words)” for short) is “desensitization”. Moreover, the “effect on the mallotoxin DMR signal in HEK-hERG cells (in words)” value (“effect … in HEK-hERG cells (in words)” below) in data set [3] was “desensitization”. The “DMR signal in HEK-hERG cells” value in data set [4] is recorded as “robust DMR signals”. The “DMR signal in HT29 cells” value in [5] is reported as “robust DMR signals”.

As for `CC1=C(C#N)C(=C(C#N)C#N)OC1(C)c1ccc(F)cc1F` (centres unmarked) [Compound D, 2-dicyanomethylene-3-cyano-4,5-dimethyl-5-[2′,4′-difluorophenyl]-2,5-dihydrofuran], in [6], the “cytotoxicity on cancer cell line HT29” value is on record as “did not exhibit cytotoxicity” and the “cell apoptosis or alteration in cell proliferation rate, HT29” value (shortened to “cell apoptosis or alteration … HT29”) was “did not lead to cell apoptosis or any alteration in cell proliferation rate”. In addition, the “cell apoptosis or alteration in cell proliferation rate, MCF7” value (“cell apoptosis or alteration … MCF7” for short) in data set [7] is “did not lead to cell apoptosis or any alteration in cell proliferation rate”. Moreover, the “Rb+ flux signal” value in data set [8] is recorded as “small but detectable increase”. In addition, the “effect … in HT29 cells (in words)” value in [2] is recorded as “attenuated signal”. Also, in [3], the “effect … in HEK-hERG cells (in words)” value is “attenuated signal”. In addition, the “DMR signal in HEK-hERG cells” value in data set [4] is “robust DMR signals”. In data set [5], the “DMR signal in HT29 cells” value is reported as “robust DMR signals”.

For the compound `CCCCc1ccc(C2(C)OC(=C(C#N)C#N)C(C#N)=C2C)cc1` (centres unmarked) [Compound E, 2-dicyanomethylene-3-cyano-4,5-dimethyl-5-[4′-n-butylphenyl]-2,5-dihydrofuran], in data set [6], the “cytotoxicity on cancer cell line HT29” value is listed as “did not exhibit cytotoxicity” and the “cell apoptosis or alteration … HT29” value is “did not lead to cell apoptosis or any alteration in cell proliferation rate”. Also, the “cell apoptosis or alteration … MCF7” value in data set [7] is listed as “did not lead to cell apoptosis or any alteration in cell proliferation rate”. Further, the “class of hERG modulator assigned” value in data set [1] is on record as “hERG activators”. Moreover, in data set [8], the “Rb+ flux signal” value is “small but detectable increase”. Moreover, the “effect … in HT29 cells (in words)” value in data set [2] is reported as “attenuated signal”. In addition, the “effect … in HEK-hERG cells (in words)” value in [3] was “attenuated signal”. Also, the “DMR signal in HEK-hERG cells” value in data set [4] was “robust DMR signals”. In addition, in [5], the “DMR signal in HT29 cells” value is “robust DMR signals”.

Take `CC1=C(C#N)C(=C(C#N)C#N)OC1(C)c1ccc(Cl)c(Cl)c1` (centres unmarked) [Compound F, 2-dicyanomethylene-3-cyano-4,5-dimethyl-5-[3′,4′-dichlorophenyl]-2,5-dihydrofuran]: the “class of hERG modulator assigned” value in data set [1] is recorded as “label-free biosensor hERG activator”.

Consider `CC1=C(C#N)C(=C(C#N)C#N)OC1(C)c1ccc(Cl)cc1Cl` (centres unmarked) [Compound G, 2-dicyanomethylene-3-cyano-4,5-dimethyl-5-[2′,4′-dichlorophenyl]-2,5-dihydrofuran], for which the melting point lay in the range of 239 to 240 °C.

With `CC1=C/C(=C/C=C/C2=C(C#N)C(=C(C#N)C#N)OC2(C)c2ccc(C3CCCCC3)cc2)CC(C)(C)C1` (centres unmarked) [Compound I], the “class of hERG modulator assigned” value in data set [1] is “label-free biosensor hERG activator”.

With `CC1=C(C#N)C(=C(C#N)C#N)OC12CCCCC2` [Compound U, 2-dicyanomethylene-3-cyano-4-methyl-5-spiro-cyclohexyl-2,5-dihydrofuran], in [6], the “cytotoxicity on cancer cell line HT29” value is “did not exhibit cytotoxicity” and the “cell apoptosis or alteration … HT29” value is reported as “did not lead to cell apoptosis or any alteration in cell proliferation rate”. Besides, the “cell apoptosis or alteration … MCF7” value in [7] is listed as “did not lead to cell apoptosis or any alteration in cell proliferation rate”. Also, the “class of hERG modulator assigned” value in data set [1] was “label-free biosensor hERG activator”.

With `CC1=C(C#N)C(=C(C#N)C#N)OC1(C)c1ccc(Cl)c(Cl)c1Cl` (centres unmarked) [H], in [1], the “class of hERG modulator assigned” value is recorded as “label-free biosensor hERG activator”.

As to `CN(CCO)c1ccc(/C=C/C2=C(C#N)C(=C(C#N)C#N)OC2(C)c2c(F)c(F)c(F)c(F)c2F)cc1` (centres unmarked) [J], in data set [1], the “class of hERG modulator assigned” value is given as “label-free biosensor hERG activator”.

Consider `O=C(Nc1cc(C(F)(F)F)ccc1O)Nc1cc(C(F)(F)F)ccc1O` [NS1643], for which the “class of hERG modulator assigned” value in [9] is recorded as “label-free biosensor hERG activators”.

`O=C(O)c1ccccc1Nc1ccc(CCc2ccc(Cl)c(Cl)c2)cc1` [PD-118057, reference compound]: in data set [1], the “class of hERG modulator assigned” value was “label-free biosensor hERG activators”.

As for `O=C(O)c1cccnc1Nc1ccc2c(c1)CN(c1ccc(Cl)c(Cl)c1)C2` [PD-307243, reference compound], the “class of hERG modulator assigned” value in [1] was “label-free biosensor hERG activators”.

Turning to `COc1ccc2nccc(C(=O)CC[C@@H]3CCN(CC#Cc4cc(F)cc(F)c4F)C[C@@H]3C(=O)O)c2c1` [RPR260243, reference compound], in [1], the “class of hERG modulator assigned” value was “label-free biosensor hERG activators”.

As to `O=C(O)c1cc(-c2ccc(F)cc2F)ccc1O` [diflunisal, reference compound], in data set [2] (setting [10]), the “score of modulation index, HT29 coordinate” value is −9. Further, the “score of modulation index, HEK-hERG coordinate” value in data set [3] (setting [10]) was 1.

For the compound `CN(CCOc1ccc(NS(C)(=O)=O)cc1)CCc1ccc(NS(C)(=O)=O)cc1` [dofetilide], the “Rb+ flux signal” value in [8] is recorded as “suppression”.

For `CC(=O)c1c(O)c(C)c(O)c(Cc2c(O)c3c(c(C(=O)/C=C/c4ccccc4)c2O)OC(C)(C)C=C3)c1O` [mallotoxin], in data set [8], the “Rb+ flux signal” value was “significant increase”. In data set [9], the “class of hERG modulator assigned” value was “label free biosensor hERG activator”.

For the origin of these results see patent publication US20120329865A1, “MOLECULES RELATED hERG ION [sequence] AND THE USE THEREOF” (priority 2009, published 2012).
